≈ marks a conversion by molar mass, not a printed value.
Assays:
[1] = test system: DU145 (human prostate carcinoma/lymphocytic leukemia); experiment: Cell proliferation (MTS) assay, DU145; type: cell-based; conditions: Homo sapiens, DU-145, 72 h, Table 1; three days treatment
Description: (§1) Results of cell proliferation assays for exemplary compounds are shown below in Tables 1 and 2. Cell lines LNCaP (human prostate carcinoma), MDA468 (human breast cancer cell), MDA435 (human breast adenocarcinoma), and DU145 (human prostate carcinoma[…]) were purchased from American Type Culture Collection (ATCC) (Rockville, Md.). Cells were cultured in RPMI Medium 1640 containing 10% fetal bovine serum (FBS) in a 37° C. incubator containing 5% CO2. All cell culture reagents were purchased from Gibco-BRL (Grand Island, N.Y.). Cells were plated in 96-well culture plates at about 3000 cells per well. One day following plating, compounds or vehicle controls (buffer only) were added to cells. Proliferation assays were performed three days post initiation of treatment.
(§2) For a non-radioactive cell proliferation assay, viable cell densities are determined by measuring metabolic conversion (by viable cells) of the dye MTS tatrazolium dye, a cell proliferation assay known by one of skill in the art (MTS assay), a previously established cell proliferation assay. The assay is performed using an assay kit (Promega Corp., Madison, Wis.). The assay plates are incubated for 1-2 hours, and the results are read in a 96-well format plate reader by measuring absorbance at 490 nm. Effect of each compound is calculated as a percentage of control cell growth obtained from vehicle-treated cells grown in the same plate.

[2] = test system: LNCaP (human prostate carcinoma); experiment: Cell proliferation (MTS) assay, LNCaP; type: cell-based; conditions: Homo sapiens, LNCaP, 72 h, Table 1; three days treatment
Description: as §1, §2

[3] = test system: MDA435 (human breast adenocarcinoma); experiment: Cell proliferation (MTS) assay, MDA435; type: cell-based; conditions: Homo sapiens, MDA435, 72 h, Table 1; three days treatment
Description: as §1, §2

[4] = test system: MDA468 (human breast cancer cell); experiment: Cell proliferation (MTS) assay, MDA468; type: cell-based; conditions: Homo sapiens, 72 h, Table 1; three days treatment
Description: as §1, §2

Human TOR = biological target: T1, Human TOR (Homo sapiens, UniProt P42345); experiment: Human TOR (mTOR) kinase assay, DELFIA format; type: biochemical; conditions: Table 1
T1 construct: FLAG
Description: The PI3K/AKT/TOR pathway is critical for cell proliferation, growth, survival, and angiogensis. Accordingly, compounds of the present invention may also be useful to inhibit TOR activity. Similar in vivo and in vitro assays to those described above with reference to PI3K can be used to determine the minimum concentration of compound sufficient to inhibit TOR. A human TOR assay and a Rat1-IGF1 assay as described in Examples 67 and 68, respectively was performed with some embodiments of the invention. The results of these assays are shown below in Tables 1 and 2.
Human TOR assays (See Toral-Barza, et al. Biochem Biophys. Res. Commun. 2005 Jun. 24; 332(1):304-10) with purified enzyme are performed in 96-well plates by DELFIA format as follows. Enzymes are first diluted in kinase assay buffer (10 mM Hepes (pH 7.4), 50 mM NaCl, 50 mM b-glycerophosphate, 10 mM MnCl2, 0.5 mM DTT, 0.25 mM microcystin LR, and […] BSA). To each well, 12 mL of the diluted enzyme is mixed briefly with 0.5 mL test inhibitor or control vehicle dimethylsulfoxide (DMSO). The kinase reaction is initiated by adding 12.5 mL kinase assay buffer containing ATP and His6-S6K to give a final reaction volume of 25 mL containing 800 ng/mL FLAG-TOR, […] ATP and […] His6-S6K. The reaction plate is incubated for 2 hours (linear at 1-6 hours) at room temperature with gentle shaking and then terminated by adding 25 mL Stop buffer (20 mM Hepes (pH 7.4), 20 mM EDTA, 20 mM EGTA). The DELFIA detection of the phosphorylated (Thr-389) His6-S6K is performed at room temperature using a monoclonal anti-P(T389)-p70S6K antibody (1A5, Cell Signaling) labeled with Europium-N1-ITC (Eu) (10.4 Eu per antibody, PerkinElmer). The DELFIA Assay buffer and Enhancement solution can be purchased from PerkinElmer. 45 mL of the terminated kinase reaction mixture is transferred to a MaxiSorp plate (Nunc) containing 55 mL PBS. The His6-S6K is allowed to attach for 2 hours after which the wells are aspirated and washed once with PBS. 100 mL of DELFIA Assay buffer with 40 ng/mL Eu-P(T389)-S6K antibody is added. The antibody binding is continued for 1 hour with gentle agitation. The wells are then aspirated and washed 4 times with PBS containing 0.05% Tween-20 (PBST). […] of DELFIA Enhancement solution is added to each well and the plates are read in a PerkinElmer Victor model plate reader. Data obtained is used to calculate enzymatic activity and enzyme inhibition by potential inhibitors.

PI3K = test system: T2, PI3K; experiment: Fluorescence polarization assay for PI3K; type: biochemical; conditions: Table 1
T2 construct: PI3K FP IC50
Description: This assay is used to determine the IC50 of compounds of the present invention as it identifies inhibitors of PI3 kinase by measuring inhibition.
The assay is run by placing 5 μL of diluted enzyme per well, then 5 μL of diluted compound (or 9.5 μL enzyme then 0.5 μL compound in DMSO) is added and mixed. Then, 10 μL substrate is added to start the reaction. The samples are incubated 30-60 minutes, then the reaction is stopped by adding 20 μL stop/detector mix.
PI3K is diluted with reaction buffer (e.g., 5 μL or 7.5 μL PI3K into 620 μL reaction buffer), and 5 μL of diluted enzyme is used per well. 5 μL reaction buffer or drug diluted in buffer (e.g., 4 μL/100 so final DMSO is 1% in reaction) is added to each. The samples are mixed by pipetting up and down. Alternatively, the enzyme can be diluted to 1215 μL. In this case 9.8 μL is added per well and 0.2 μL compound is added in DMSO.
To prepare 1 mL of substrate solution, 955 μL reaction buffer, 40 μL PIP2, and 2.5 μL ATP are mixed. 10 μL of substrate is added to each well to start the reaction.
Stop/detector mix is prepared by mixing 4 μL Red detector and 1.6 μL or 2.0 μL GST-GRP with 1 mL Stop buffer, which results in 10 nM probe and 70 nM GST-GRP). 20 μL of the stop/detector mix is added to each well to stop the reaction. The plates are read after 30-90 minutes keeping the red probe solutions dark.
For the zero time point, stop/detector mix is added to the enzyme just before adding substrate. For an extra control, stop/detector mix is added to buffer (no enzyme) and substrate or to just buffer (no substrate).
The recommended reaction has 0.06 μL per 20 μL (0.015 μg/20 μL) or 0.01125 μg/15 μL or 0.75 μg/mL.
Plates are read on machines with filters for Tamra. The units are mP with no enzyme controls reading app 190-220 mP units. Fully active enzyme reduces fluorescence polarization down to 70-100 mP after 30 minutes. An active cpd raises the mP values halfway to control or to 120-150 mP units.

Molecule	IC50 [1] [µg/mL]	IC50 [2] [µg/mL]	IC50 [3] [µg/mL]	IC50 [4] [µg/mL]	IC50 (Human TOR) [nM]	PI3K FP IC50 (PI3K) [µg/mL]	TOR IC50 (Human TOR) [µg/mL]
CCN(/C=C1/C(=O)O[C@H](COC)[C@@]2(C)C1=C(O)C(=O)C1=C2[C@H](OC(C)=O)C[C@]2(C)[C@@H](O)CC[C@@H]12)CC [Compound 1, (1E,4S,4aR,5R,6aS,7S,9aR)-1-[(diethylamino)methylene]-7,11-dihydroxy-4-(methoxymethyl)-4a,6a-dimethyl-2,10-dioxo-1,2,4,4a,5,6,6a,7,8,9,9a,10-dodecahydroindeno[4,5-h]isochromen-5-yl acetate]	2	0.075	6	1			
COC[C@H]1OC(=O)/C(=C/N2CCCC2)C2=C(O)C(=O)C3=C([C@H](OC(C)=O)C[C@]4(C)[C@@H](O)CC[C@@H]34)[C@]21C [Compound 2, (1E,4S,4aR,5R,6aS,7S,9aR)-7,11-dihydroxy-4-(methoxymethyl)-4a,6a-dimethyl-2,10-dioxo-1-(Pyrrolidin-1-ylmethylene)-1,2,4,4a,5,6,6a,7,8,9,9a,10-dodecahydroindeno[4,5-h]isochromen-5-yl acetate]	1.4	0.1	6	1	> 19900		
CCN(/C=C1/C(=O)O[C@H](COC)[C@@]2(C)C1=C(O)C(=O)C1=C2[C@H](OC(C)=O)C[C@@]2(C)C1CC[C@@H]2OC=O)CC (stereo partly drawn) [Compound 18, (1E,4S,4aR,5R,6aS,7S)-1-[(diethylamino)methylene]-7-(formyloxy)-11-hydroxy-4-(methoxymethyl)-4a,6a-dimethyl-2,10-dioxo-1,2,4,4a,5,6,6a,7,8,9,9a,10-dodecahydroindeno[4,5-h]isochromen-5-yl acetate]	1.5	0.11	6	0.4	4700		
COCC1OC(=O)C(=CN(CCN(C)C)Cc2ccccc2)C2=C(O)C(=O)C3=C(C(OC(C)=O)CC4(C)C(O)CCC34)C21C (stereo not shown) [Compound 43, Acetic acid 4-{[benzyl-(2-dimethylamino-ethyl)-amino]-methylene}-6,17-dihydroxy-1-methoxymethyl-10,13-dimethyl-3,7-dioxo-1,3,4,7,10,11,12,13,14,15,16,17-dodecahydro-2-oxa-cyclopenta[a]phenanthren-11-yl ester]		0.42 (≈ 0.69 µM)		3.4 (≈ 5.59 µM)	4600	0.027	
CCCCSC=C1C(=O)OC(COC)C2(C)C1=C(O)C(=O)C1=C2C(OC(C)=O)CC2(C)C(O)CCC12 (stereo not shown) [Compound 52, Acetic acid 4-butylsulfanylmethylene-6,17-dihydroxy-1-methoxymethyl-10,13-dimethyl-3,7-dioxo-1,3,4,7,10,11,12,13,14,15,16,17-dodecahydro-2-oxa-cyclopenta[a]phenanthren-11-yl ester]		0.25 (≈ 0.48 µM)		3.85 (≈ 7.39 µM)	2500	0.043	
(1E,4S,4aR,5R,6aS,7S,9aR)-1-({4-[2-(2,5-dioxo-2,5-dihydro-1H-pyrrol-1-yl)ethyl]piperazin-1-yl}methylene)-7,11-dihydroxy-4-(methoxymethyl)-4a,6a-dimethyl-2,10-dioxo-1,2,4,4a,5,6,6a,7,8,9,9a,10-dodecahydroindeno[4,5-h]isochromen-5-yl acetate [Compound 65]						1.55	0.58

Second part, led by results:

IC50 [1] [µg/mL]	IC50 [2] [µg/mL]	IC50 [3] [µg/mL]	IC50 [4] [µg/mL]	IC50 (Human TOR) [nM]	PI3K FP IC50 (PI3K) [µg/mL]	Molecule	TOR IC50 (Human TOR) [µg/mL]
	1.45 (≈ 2.45 µM)		5 (≈ 8.46 µM)	728	0.028	COCC1OC(=O)C(=CN(CCC#N)Cc2ccccc2)C2=C(O)C(=O)C3=C(C(OC(C)=O)CC4(C)C(O)CCC34)C21C (stereo not shown) [Compound 41, Acetic acid 4-{[benzyl-(2-cyano-ethyl)-amino]-methylene}-6,17-dihydroxy-1-methoxymethyl-10,13-dimethyl-3,7-dioxo-1,3,4,7,10,11,12,13,14,15,16,17-dodecahydro-2-oxa-cyclopenta[a]phenanthren-11-yl ester]	
	0.75 (≈ 1.3 µM)		4.1 (≈ 7.13 µM)	1480	0.014	CCN(C=C1C(=O)OC(COC)C2(C)C1=C(O)C(=O)C1=C2C(OC(C)=O)CC2(C)C(O)CCC12)CCN(CC)CC (stereo not shown) [Compound 42, Acetic acid 4-{[(2-diethylamino-ethyl)-ethyl-amino]-methylene}-6,17-dihydroxy-1-methoxymethyl-10,13-dimethyl-3,7-dioxo-1,3,4,7,10,11,12,13,14,15,16,17-dodecahydro-2-oxa-cyclopenta[a]phenanthren-11-yl ester]	
	0.8 (≈ 1.46 µM)		4.25 (≈ 7.77 µM)	1520	0.044	CCC(=O)OC1CC2(C)C(O)CCC2C2=C1C1(C)C(=C(O)C2=O)C(=CN(C)CCN(C)C)C(=O)OC1COC (stereo not shown) [Compound 49, Propionic acid 4-{[(2-dimethylamino-ethyl)-methyl-amino]-methylene}-6,17-dihydroxy-1-methoxymethyl-10,13-dimethyl-3,7-dioxo-1,3,4,7,10,11,12,13,14,15,16,17-dodecahydro-2-oxa-cyclopenta[a]phenanthren-11-yl ester]	
				539		CCCC(=O)OC1CC2(C)C(O)CCC2C2=C1C1(C)C(=C(O)C2=O)C(=CN(C)CC(C)N(C)C)C(=O)OC1COC (stereo not shown) [Compound 63, Butanoic acid 4-{[(2-dimethylamino-propyl)-methyl-amino]-methylene}-6,17-dihydroxy-1-methoxymethyl-10,13-dimethyl-3,7-dioxo-1,3,4,7,10,11,12,13,14,15,16,17-dodecahydro-2-oxa-cyclopenta[a]phenanthren-11-yl ester]	
